Source: patent US9399649B2, “Compounds for treating spinal muscular atrophy” (PTC Therapeutics Inc., priority 2012, dated 2016)

Legend:
[1] = system: full length SMN2 minigene mRNA containing SMN2 exon 7; assay: SMN2 minigene mRNA splicing RT-qPCR assay in cultured cells; type: cell-based, human; settings: Homo sapiens, HEK293-H; HEK293H cells stably transfected with SMN2-A minigene, 24 hours, 7-point concentration curve; concentration giving 1.5-fold full length SMN2 mRNA vs vehicle; read-out: EC1.5x for production of full length SMN2 mRNA
How it was run: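 HEK293H cells stably carrying SMN2-A minigene treated 24 h (37 °C) with compound, 7-point 3.16-fold dilution, duplicates. Multiplex RT-qPCR on lysate with exon 7/luciferase primers and exon 7–8 junction probe (minigene-specific). Full-length transcript normalised to GAPDH by modified ΔΔCt, expressed relative to vehicle-treated cells.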

Smn protein = Smn protein assay in cultured cells (SMN HTRF); type: cell-based, human; settings: SMA patient fibroblast cells (GM03813), 48 hours; for maximum fold (Fold) increase of Smn protein: 7-point concentration data, relative to vehicle control; for EC1.5x for Smn protein expression: 7-point concentration curve, concentration producing 1.5 times Smn protein vs DMSO vehicle
How it was run: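 SMA patient fibroblasts, 5,000 per well in DMEM-10% FBS, exposed 48 h at 37° C. to a 7-point, 3.16-fold compound series in triplicate. RIPA lysates read by SMN HTRF (665/620 nm, overnight at room temperature); ΔF over blank expressed as fold of vehicle.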

| SMILES | melting point | EC (1.5-fold) [1] [µM] | maximum fold (Fold) increase of Smn protein (Smn protein) | EC1.5x for Smn protein expression (Smn protein) |
| --- | --- | --- | --- | --- |
| C[C@@H]1CN(c2ccc3cc(-c4ccc5c(c4)OCCO5)oc(=O)c3c2)C[C@H](C)N1 [Cpd 39, 3-(2,3-dihydro-1,4-benzodioxin-6-yl)-7-[(3R,5S)-3,5-dimethylpiperazin-1-yl]-1H-isochromen-1-one] | 218 to 220 °C | 1 to 3 | * (A maximum fold increase of ≦1.2 is indicated by one star (*)) |  |
| COCCN1CC=C(c2ccc3cc(-c4cn5cc(C)nc(C)c5n4)oc(=O)c3c2)CC1 [Cpd 92, 3-(6,8-dimethylimidazo[1,2-a]pyrazin-2-yl)-7-[1-(2-methoxyethyl)-1,2,3,6-tetrahydropyridin-4-yl]-1H-isochromen-1-one] | 174 to 176 °C | ≤ 0.1 | ***** (a fold increase >1.65 is indicated by five stars (*****)) | **** (an EC1.5×≦0.3 nM is indicated by four stars (****)) |
| CCc1nc(C)cn2cc(-c3cc4ccc(N5C[C@@H](C)N(C)[C@@H](C)C5)cc4c(=O)o3)nc12 [Cpd 158, 3-(8-ethyl-6-methylimidazo[1,2-a]pyrazin-2-yl)-7-[(3R,5S)-3,4,5-trimethylpiperazin-1-yl]-1H-isochromen-1-one] | 235 to 238 °C | ≤ 0.1 | ***** (a fold increase >1.65 is indicated by five stars (*****)) | **** (an EC1.5×≦0.3 nM is indicated by four stars (****)) |
| CCN1CCN(c2ccc3cc(-c4cc5c(C)nc(C)cn5c4)oc(=O)c3c2)CC1 [Cpd 77, 3-(1,3-dimethylpyrrolo[1,2-a]pyrazin-7-yl)-7-(4-ethylpiperazin-1-yl)-1H-isochromen-1-one] | 202 to 204 °C | ≤ 0.1 | *** (a fold increase between >1.35 and ≦1.5 is indicated by three stars (***)) | *** (an EC1.5× between >0.3 nM and ≦1 nM is indicated by three stars (***)) |
| Cc1nc(Cl)cn2cc(-c3cc4ccc(N5CCN[C@H](C)C5)cc4c(=O)o3)nc12 [Cpd 109, 3-(6-chloro-8-methylimidazo[1,2-a]pyrazin-2-yl)-7-[(3R)-3-methylpiperazin-1-yl]-1H-isochromen-1-one] | 251 to 258 °C | ≤ 0.1 | ***** (a fold increase >1.65 is indicated by five stars (*****)) | *** (an EC1.5× between >0.3 nM and ≦1 nM is indicated by three stars (***)) |
| COc1ccccc1-c1cc2ccc(N3CCN[C@@H](C)C3)cc2c(=O)o1 [Cpd 32, 3-(2-methoxyphenyl)-7-[(3S)-3-methylpiperazin-1-yl]-1H-isochromen-1-one] | 143 to 146 °C | 0.3 to 1 | ** (a fold increase between >1.2 and ≦1.35 is indicated by two stars (**)) |  |
| CCOc1ccc(-c2cc3ccc(N4CCN[C@@H](C)C4)cc3c(=O)o2)cc1 [Cpd 42, 3-(4-ethoxyphenyl)-7-[(3S)-3-methylpiperazin-1-yl]-1H-isochromen-1-one] | 239 to 240 °C | 0.1 to 0.3 | ** (a fold increase between >1.2 and ≦1.35 is indicated by two stars (**)) |  |
| CCCN1CCN(c2ccc3cc(-c4cn5cc(C)nc(C)c5n4)oc(=O)c3c2)C[C@@H]1C [Cpd 137, 3-(6,8-dimethylimidazo[1,2-a]pyrazin-2-yl)-7-[(3S)-3-methyl-4-propylpiperazin-1-yl]-1H-isochromen-1-one] | 249 to 254 °C | ≤ 0.1 | ***** (a fold increase >1.65 is indicated by five stars (*****)) | **** (an EC1.5×≦0.3 nM is indicated by four stars (****)) |
| O=c1oc(-c2cn3ccsc3n2)cc2ccc(N3CCNCC3)cc12 [Cpd 28, 3-(imidazo[2,1-b][1,3]thiazol-6-yl)-7-(piperazin-1-yl)-1H-isochromen-1-one] | 224 to 226 °C | 0.3 to 1 | *** (a fold increase between >1.35 and ≦1.5 is indicated by three stars (***)) |  |
| COc1ccc(-c2cc3ccc(N4CCN(C)[C@@H](C)C4)cc3c(=O)o2)cc1OC [Cpd 67, 3-(3,4-dimethoxyphenyl)-7-[(3S)-3,4-dimethylpiperazin-1-yl]-1H-isochromen-1-one] | 138 to 140 °C | 0.3 to 1 | *** (a fold increase between >1.35 and ≦1.5 is indicated by three stars (***)) | ** (an EC1.5× between >1 μM, and ≦3 nM is indicated by two stars (**)) |
| COc1ccccc1-c1cc2ccc(N3CCN(C)CC3)cc2c(=O)o1 [Cpd 22, 3-(2-methoxyphenyl)-7-(4-methylpiperazin-1-yl)-1H-isochromen-1-one] | 118 to 120 °C | 1 to 3 | * (A maximum fold increase of ≦1.2 is indicated by one star (*)) |  |
| C[C@H]1CN(c2ccc3cc(-c4cn5cccc(Cl)c5n4)oc(=O)c3c2)CCN1 [Cpd 60, 3-(8-chloroimidazo[1,2-a]pyridin-2-yl)-7-[(3S)-3-methylpiperazin-1-yl]-1H-isochromen-1-one] | 314 to 316 °C | 0.3 to 1 | *** (a fold increase between >1.35 and ≦1.5 is indicated by three stars (***)) |  |
| Cc1cn2cc(-c3cc4ccc(N5CCN(C(C)C)CC5)cc4c(=O)o3)nc2cn1 [Cpd 128, 3-(6-methylimidazo[1,2-a]pyrazin-2-yl)-7-[4-(propan-2-yl)piperazin-1-yl]-1H-isochromen-1-one] | 231 to 236 °C | ≤ 0.1 | ***** (a fold increase >1.65 is indicated by five stars (*****)) | **** (an EC1.5×≦0.3 nM is indicated by four stars (****)) |
| Cc1cc2cc(-c3cc4ccc(N5CCNCC5)cc4c(=O)o3)ccc2o1 [Cpd 52, 3-(2-methyl-1-benzofuran-5-yl)-7-(piperazin-1-yl)-1H-isochromen-1-one] | 206 to 208 °C | 0.1 to 0.3 | *** (a fold increase between >1.35 and ≦1.5 is indicated by three stars (***)) | * (An EC1.5× for Smn protein expression between >3 μM and <10 μM is indicated by one star (*)) |
| O=c1oc(-c2ccc3c(c2)OCO3)cc2ccc(N3CCNCC3)cc12 [Cpd 12, 3-(1,3-benzodioxol-5-yl)-7-(piperazin-1-yl)-1H-isochromen-1-one] | 267 to 269 °C | 0.3 to 1 | ** (a fold increase between >1.2 and ≦1.35 is indicated by two stars (**)) |  |
| COc1ccc(-c2cc3ccc(N4CCN[C@@H](C)C4)cc3c(=O)o2)c(OC)c1 [Cpd 50, 3-(2,4-dimethoxyphenyl)-7-[(3S)-3-methylpiperazin-1-yl]-1H-isochromen-1-one] | 231 °C (dec.) | ≤ 0.1 | *** (a fold increase between >1.35 and ≦1.5 is indicated by three stars (***)) | ** (an EC1.5× between >1 μM, and ≦3 nM is indicated by two stars (**)) |
| O=c1oc(-c2cc(F)cc(F)c2)cc2ccc(N3CCNCC3)cc12 [Cpd 14, 3-(3,5-difluorophenyl)-7-(piperazin-1-yl)-1H-isochromen-1-one] | 200 to 202 °C | 1 to 3 | ** (a fold increase between >1.2 and ≦1.35 is indicated by two stars (**)) |  |
| Cc1cn2cc(-c3cc4ccc(N5CCN(C)[C@H](C)C5)cc4c(=O)o3)nc2cn1 [Cpd 127, 7-[(3R)-3,4-dimethylpiperazin-1-yl]-3-(6-methylimidazo[1,2-a]pyrazin-2-yl)-1H-isochromen-1-one] | 243 to 248 °C | ≤ 0.1 | ***** (a fold increase >1.65 is indicated by five stars (*****)) | **** (an EC1.5×≦0.3 nM is indicated by four stars (****)) |
| Cc1cn2cc(-c3cc4ccc(N5CCN(C)[C@@H](C)C5)cc4c(=O)o3)nc2cn1 [Cpd 121, 7-[(3S)-3,4-dimethylpiperazin-1-yl]-3-(6-methylimidazo[1,2-a]pyrazin-2-yl)-1H-isochromen-1-one] | 250 to 255 °C | ≤ 0.1 | ***** (a fold increase >1.65 is indicated by five stars (*****)) | **** (an EC1.5×≦0.3 nM is indicated by four stars (****)) |
| COc1cccc(-c2cc3ccc(N4CCCNCC4)cc3c(=O)o2)c1 [Cpd 21, 7-(l,4-diazepan-1-yl)-3-(3-methoxyphenyl)-1H-isochromen-1-one] | 148 to 150 °C | 3 to 30 | * (A maximum fold increase of ≦1.2 is indicated by one star (*)) |  |
| CCCN1CCC(c2ccc3cc(-c4cn5cc(C)nc(C)c5n4)oc(=O)c3c2)CC1 [Cpd 116, 3-(6,8-dimethylimidazo[1,2-a]pyrazin-2-yl)-7-(1-propylpiperidin-4-yl)-1H-isochromen-1-one] | 204 to 206 °C | ≤ 0.1 | **** (a fold increase between >1.5 and ≦1.65 is indicated by four stars (****)) | *** (an EC1.5× between >0.3 nM and ≦1 nM is indicated by three stars (***)) |
